No end group written: not given here.
Key:
[1] = Transdermal delivery of FITC-conjugated 29-mer ointment with or without microneedle patch, fluorescent microscopy of skin; format: in vivo, C57BL/6 mice; details: 24 hours later
Experimental: The Fluorescein (FITC)-conjugated 29-mer peptide was used to investigate the in vivo transdermal delivery of the present PEDF peptides.
First, the dorsal hair of 8-wk-old male C57BL/6 mice were removed using a melted wax/rosin mixture (1:1) under general anesthesia. On the next day, the ointment containing the FITC-conjugated 29-mer peptide (25 μM) was applied onto the dorsal skin of the mice, and then a microneedle patch (3M™ Microchannel Skin System; provided from 3M Singapore) was gently pressed against the dorsal skin so that the microneedles penetrated less than 100 microns into the skin (the FITC-29 mer/MN group). As to the control group (FITC-29 mer/CT), the mice received the ointment without subsequent microneedle treatment. Twenty-four hours later, the skin was harvested, fixed, cryosectioned and examined by fluorescent microscopy.
The H&E stained section in the left panel of FIG. 1 highlights the epidermis and dermis of the specimen. The fluorescence images in the middle and right panels of FIG. 1 illustrate the distribution of FITC-conjugated 29-mer across the skin.

[2] = test system: primary mouse dermal fibroblasts; assay: Dermal fibroblast proliferation in vitro, BrdU labeling assay; format: cell-based, C57BL/6 mouse; details: 24 hours; for BrdU/Vimentin Labeling Index (%): 50 nM peptide in 1% FBS medium, BrdU 2 hours
Experimental: (§1) Full-thickness skin tissue was obtained from the dorsum of C57BL/6 mouse. The subcutaneous tissue was carefully dissected from the skin and washed three times in sterile phosphate-buffered saline (PBS). The tissue was then cut into small pieces (1-2 mm^3). After being digested with 0.1% dispase at 4° C. overnight, the epidermal layers were removed, and the remaining dermal parts were further digested with 0.1% collagenase I at 37° C. for another 4 hours. The digested cells were then collected by centrifugation (400 g for 5 minutes) and resuspended in high-glucose DMEM supplemented with 10% FBS, 2 mM L-glutamine, and 1% penicillin-streptomycin antibiotic mixture. Cells were seeded onto tissue-culture plates (Falcon Labware; NJ, USA) at 1×10^3 cells/cm^2 and maintained at 37° C. with 5% CO2. After 24 hours, the medium was discarded to remove residual non-adherent cells, and cell culture was replenished with a fresh medium. For passage, near-confluent cells were harvested with 0.25% trypsin/EDTA.
After fixing with 4% paraformaldehyde, cells were exposed to cold methanol for 2 minutes, and then treated with 1 N HCl at room temperature for 1 hour before performing immunofluorescence staining.
BrdU-labeled DNA was detected by polyclonal anti-BrdU antibody and rhodamine-conjugated donkey anti-rabbit IgG. Nuclei were counterstained with Hoechst 33258 (blue).
Primary mouse dermal fibroblasts were isolated and cultured as described in the “Materials and Methods” section. The dermal fibroblast at passage 2 were seeded at gelatin-coated slide in a 6-well plate at a density of 2×10^5 cells per well and cultured in growth medium (DMEM 10% FBS) for 24 hours before being replaced by a basal growth medium with 1% FBS only (control group) or with 1% FBS plus an additional 50 nM of PEDF-derived peptide (i.e., 29-mer, 24-mer, 20-mer, 18-mer, Mo 29-mer, or Mo 20-mer) for 24 hours. For BrdU labeling assay, BrdU (final concentration, 10 μM) was added to the culture for 2 hours. The level of BrdU- and vimentin-double positive cells was expressed as the percentage of BrdU- and vimentin-double positive cells per total vimentin-positive cells (the BrdU/Vimentin Labeling Index), and the results were summarized in Table 2.

MMP-1 = assay: UVB-induced MMP-1 protein expression in WS-1 cells, western blotting; format: cell-based, human
Experimental: Human skin fibroblast WS-1 cell line was obtained from Food Industry Research and Development Institute (Hsin-Chu, Taiwan). The WS-1 cells were maintained in a 37° C., 5% CO2 humidified incubator as monolayers in culture flasks. They were grown in 10% FBS-DMEM supplemented with 2 mM L-glutamine, 0.1 mM non-essential amino acids, 1% penicillin/streptomycin. For passage, near-confluent cells were sub-cultured by 0.25% trypsin/EDTA.
Skin tissues were homogenized in ice-cold lysis buffer containing 20 mM HEPES (pH 7.4), 150 mM NaCl, 1% SDS, 1 mM ethylenediamine tetraacetic acid (EDTA), 5 mM phenylmethanesulfonyl fluoride (PMSF), and 1 mM dithiothreitol (DTT), 1% Triton X-100, with freshly added protease inhibitor cocktail (Roche, Indianapolis, Ind.). Homogenates were then centrifuged at 12,000 g for 30 minutes at 4° C., and supernatants were then collected and stored at −70° C. Protein contents in lysates were determined using the Bradford assay. Whole cell lysates were prepared using the above lysis buffer. Aliquots of the lysates were then resolved on a SDS-PAGE and then electrotransferred to polyvinylidene difluoride (PVDF) membranes (Millipore, Bedford, Mass., USA) and processed for immunoblot analysis.
Antibodies used in the immunoblot study included anti-type I collagen 1A1 antibody (1:1000 dilution), anti-MMP-1 antibody (1:500 dilution) and anti-β-actin antibody (1:10000 dilution). Proteins of interest were detected using the appropriate IgG-HRP secondary antibody and ECL reagent (Amersham, Arlington Heights, Ill., USA). X-ray films were scanned on a Model GS-700 Imaging Densitometer (Bio-Rad Laboratories, Hercules, Calif.) and analyzed using Labworks 4.0 software. For quantification, blots from at least three independent experiments were used.
WS-1 were seeded on a six-well plate at a density of 1×10^5 cells per well and grown in the 10% FBS-DMEM growth medium for 24 hours and then incubated with 1% FBS-DMEM supplemented with or without 100 nM PEDF peptide for further 24 hours. The cells were washed twice with phosphate buffered saline (PBS) and exposed to UVB radiation covered with PBS. The UVB treatment was conducted in a cell culture hood by using a UVB lamp (model XL-1000B, Spectrolinker™ Inc.) at a final dose of 15 mJ/cm^2 for about 100 seconds. Cell viability was assayed using trapan blue exclusion assay (>95%). After UVB irradiation, PBS was replaced with 1% FBS-DMEM with or without PEDF peptide for further 48 hours and then protein extracts were assayed by western blotting for the expression of MMP-1 protein. Cells that were not subjected to UVB irradiation were used as control (normal). The expression level of MMP-1 was normalized with the expression level in the Vehicle/UVB group (set to 100%), and quantitative results are summarized in Table 6.

MMP-13 = assay: UVB-induced MMP-13 mRNA expression in primary mouse dermal fibroblasts, RT-PCR; format: cell-based
Experimental: as §1
The total RNA was extracted from cells using the TRIzol (Invitrogen) and treated with RNase-free DNase I (Qiagen, Santa Clarita, Calif.) to remove genomic DNA and then purified with an RNA purification kit (Dynabeads; Invitrogen). 1 μg of total RNA retrieved from primary dermal fibroblast was reverse-transcribed into cDNA by 200 units of expand Reverse-Transcriptase (Roche, Mannheim, Germany) in 20 μl of reaction buffer containing 0.25 μg of random primers and 0.8 mM dNTPs at 42° C. for 1 hour. 2 μl of the cDNA was used for the PCR reaction as templates. PCR was performed in a 30 μl volume containing 15 μl of EconoTaq® PLUS GREEN 2× Master Mix (Lucigen® Corp.), 1 μM of each primer and 2 μl of template DNA. cDNA was synthesized in an 18-22 cycle amplification reaction (denaturation, 20 s, 94° C.; annealing, 30 s, 57° C.; and polymerization, 40 s, 72° C.). The number of cycles for the primer set was chosen to be in the linear range of amplification. The sequences of specific PCR primers were mouse MMP-13 (accession number: NM_008607) sense, […] (SEQ ID NO: 12); antisense, […] (SEQ ID NO: 13); PCR product: 201 bp; and mouse glyceraldehyde 3-phosphate dehydrogenase (GAPDH; accession number: M32599) sense, […] (SEQ ID NO: 14); and anti-sense, […] (SEQ ID NO: 15); PCR product: 223 bp.). The PCR products were electrophoresed in a 2% agarose gel containing ethidium bromide and visualized by UV illumination. The intensities of the PCR products were quantified densitometrically using a FUJI LAS-3000 system and Multi Gauge Ver. 1.01 software (Fujifilm, Tokyo, Japan).
Primary mouse dermal fibroblasts in passage 2 of monolayer cultures were incubated with 1% FBS-DMEM supplemented with or without 100 nM PEDF peptide for 24 hours, and then subjected to UVB irradiation as described above. After UVB irradiation, PBS was replaced with 1% FBS-DMEM with or without PEDF peptide for further 24 hours, and then cellular total RNAs were extracted for subsequent RT-PCR analysis. The expression level of MMP-13 mRNA was normalized with the expression level in the Vehicle/UVB group (set to 100%), and quantitative results are summarized in Table 7.

**Q.** Which results are given for “FITC-conjugated 29-mer: Fluorescein (FITC)-conjugated 29-mer peptide used to investigate in vivo transdermal delivery (SLGAEQRTESIIHRALYYDLISSPDIHGT; also: FITC conjugated, site not given here)”?
**A.** distribution of fluorescein signal across the skin (delivery to dermis) ([1]; ointment 25 μM on dorsal skin plus microneedle patch (FITC-29 mer/MN)): successfully delivered to the dermis; distribution of fluorescein signal across the skin (delivery to dermis) ([1]; ointment 25 μM on dorsal skin without microneedle treatment (FITC-29 mer/CT)): barely detectable in the dermis

**Q.** Which “BrdU/Vimentin Labeling Index (%)” value [2] does the source give for “SLGAEHRTESVIHRALYYDL [Mo 20-mer, synthetic peptide derived from mouse PEDF]” here?
**A.** Its value is 11.3 ± 1.6 %.

**Q.** For “SLGAEHRTESVIHRALYYDLITNPDIHST [Mo 29-mer, synthetic peptide derived from mouse PEDF]”, which “BrdU/Vimentin Labeling Index (%)” value [2] is on record?
**A.** Its value is 11.1 ± 2.0 %.

**Q.** For “SLGAEQRTESIIHRALYYDLISSP [24-mer, synthetic peptide corresponding to residues 93-116 of human PEDF]”, which “BrdU/Vimentin Labeling Index (%)” value [2] is on record?
**A.** The value was 10.1 ± 1.9 %.

**Q.** What about the “proliferation relative to control medium” value ([2]; 50 nM peptide) of the same substance?
**A.** Its value is “about 5 fold”.

**Q.** What about the “MMP-1 Expression Level (%)” value (MMP-1; 100 nM peptide 24 h before and 48 h after UVB 15 mJ/cm^2, Vehicle/UVB set to 100%) of the same substance?
**A.** Its value is 48 ± 7.2 %.

**Q.** What about the “MMP-1 protein level relative to vehicle/UVB group” value (MMP-1; pre-incubation with peptide, UVB) of the same substance?
**A.** The value was “about half”.

**Q.** And the “MMP-13 Expression Level (%)” value (MMP-13; 100 nM peptide 24 h before and 24 h after UVB 15 mJ/cm^2, mRNA, Vehicle/UVB set to 100%)?
**A.** The value was 16.3 ± 1.5 %.

**Q.** And the “effect on UVB-induced upregulation of MMP-13” value (MMP-13; cells pretreated with peptide, UVB)?
**A.** Its value is “substantially reduced”.

— patent US9815878B2, “Use of PEDF-derived polypeptides for preventing and/or ameliorating skin aging” (MacKay Memorial Hospital, priority 2012, dated 2017)
